Assays:
Test in all cases: Kinase panel, CaNDY 1 µM
Format in all cases: biochemical
EGFR(d746-750/T790M) = biological target: T1, EGFR(d746-750/T790M) (Homo sapiens, UniProt P00533, DEL746-750/T790M); details: CaNDY 1 µM relative to DMSO
T1 construct: purchased Carna Biosciences

LYNb = biological target: T2, LYNb (Homo sapiens, UniProt P07948); details: CaNDY 1 µM relative to DMSO
T2 construct: purchased Carna Biosciences

p38γ = biological target: T3, p38γ (Homo sapiens, UniProt P53778); details: CaNDY 1 µM relative to DMSO
T3 construct: purchased Carna Biosciences

TAOK2 = biological target: T4, TAOK2 (Homo sapiens, UniProt Q9UL54); details: CaNDY 1 µM relative to DMSO
T4 construct: purchased Carna Biosciences
T4 sequence (Q9UL54 whole entry): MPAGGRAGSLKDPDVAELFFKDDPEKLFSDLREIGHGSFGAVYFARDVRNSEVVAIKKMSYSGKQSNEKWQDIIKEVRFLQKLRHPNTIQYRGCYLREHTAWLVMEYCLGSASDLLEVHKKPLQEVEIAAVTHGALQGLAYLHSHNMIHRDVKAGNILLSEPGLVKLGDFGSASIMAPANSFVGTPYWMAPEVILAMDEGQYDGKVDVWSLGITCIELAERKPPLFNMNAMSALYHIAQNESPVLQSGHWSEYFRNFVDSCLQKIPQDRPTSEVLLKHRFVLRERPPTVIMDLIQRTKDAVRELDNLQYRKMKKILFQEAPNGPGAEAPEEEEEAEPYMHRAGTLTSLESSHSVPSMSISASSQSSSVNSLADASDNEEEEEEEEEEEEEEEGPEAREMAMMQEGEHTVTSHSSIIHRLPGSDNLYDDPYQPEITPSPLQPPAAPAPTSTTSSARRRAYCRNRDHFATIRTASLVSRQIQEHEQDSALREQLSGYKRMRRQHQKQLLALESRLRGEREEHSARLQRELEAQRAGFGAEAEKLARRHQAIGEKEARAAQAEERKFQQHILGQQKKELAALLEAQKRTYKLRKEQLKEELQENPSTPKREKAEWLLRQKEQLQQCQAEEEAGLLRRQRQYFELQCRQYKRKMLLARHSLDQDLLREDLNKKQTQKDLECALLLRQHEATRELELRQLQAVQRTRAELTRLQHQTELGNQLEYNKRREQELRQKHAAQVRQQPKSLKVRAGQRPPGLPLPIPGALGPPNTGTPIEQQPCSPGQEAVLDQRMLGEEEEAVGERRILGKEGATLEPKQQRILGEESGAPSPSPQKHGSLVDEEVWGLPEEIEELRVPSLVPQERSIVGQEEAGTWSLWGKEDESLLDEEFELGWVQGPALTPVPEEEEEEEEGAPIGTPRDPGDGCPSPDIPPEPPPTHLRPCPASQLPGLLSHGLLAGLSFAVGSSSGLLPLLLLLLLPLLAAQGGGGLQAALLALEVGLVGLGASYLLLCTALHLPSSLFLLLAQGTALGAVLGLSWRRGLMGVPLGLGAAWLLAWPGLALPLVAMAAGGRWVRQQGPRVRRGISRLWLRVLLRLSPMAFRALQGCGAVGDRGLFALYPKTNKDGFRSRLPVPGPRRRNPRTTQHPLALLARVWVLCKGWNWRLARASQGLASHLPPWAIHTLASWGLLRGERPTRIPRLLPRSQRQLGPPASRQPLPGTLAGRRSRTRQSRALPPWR

DYRK1A = DYRK1A (Homo sapiens, UniProt Q13627); parameters: purchased Carna Biosciences
From the text: (§1) Detailed information on the assay conditions is available on the website of Carna Biosciences (http://www.carnabio.com/english/index.html; Kobe, Japan). In brief, full-length human recombinant kinases were expressed using a baculovirus expression system as amino-terminal GST-fusion proteins, and purified by glutathione-Sepharose chromatography. The GenBank accession numbers of DYRK1A, DYRK1B, DYRK2, and DYRK3 were NP_001387.2, NP_004705.1, NP_003574.1, and NP_003573.2. Kinase activities were evaluated by Off-chip Mobility Shift Assay after reaction of 1 μM of the substrate DYRKtide-F with ATP (25 μM for DYRK1A, 50 μM for DYRK1B, 10 μM for DYRK2, and 5 μM for DYRK3). For each compound, a DMSO solution was diluted in assay buffer to yield a final concentration of 1% DMSO. After incubation for one hour at room temperature, substrate phosphorylation was analyzed by electrophoretic separation of the substrate and products using a Caliper LC3000 platform (Caliper Life Sciences, Mountain View, CA, USA). The phosphorylated product (P)/(P + substrate) ratio was calculated at each concentration of each small molecule and the percent inhibition was expressed relative to a control assay in the absence of the small molecule. […] The IC50 of each compound was calculated by interpolation on a log-concentration-response curve fitted with a four-parameter logistic equation.
(§2) All kinase assays were carried out at Carna Biosciences. The inhibitory map was made with Kinome Render[36].

DYRK1B = DYRK1B (Homo sapiens, UniProt Q9Y463); parameters: purchased Carna Biosciences
Chain of DYRK1B (Q9Y463 whole entry): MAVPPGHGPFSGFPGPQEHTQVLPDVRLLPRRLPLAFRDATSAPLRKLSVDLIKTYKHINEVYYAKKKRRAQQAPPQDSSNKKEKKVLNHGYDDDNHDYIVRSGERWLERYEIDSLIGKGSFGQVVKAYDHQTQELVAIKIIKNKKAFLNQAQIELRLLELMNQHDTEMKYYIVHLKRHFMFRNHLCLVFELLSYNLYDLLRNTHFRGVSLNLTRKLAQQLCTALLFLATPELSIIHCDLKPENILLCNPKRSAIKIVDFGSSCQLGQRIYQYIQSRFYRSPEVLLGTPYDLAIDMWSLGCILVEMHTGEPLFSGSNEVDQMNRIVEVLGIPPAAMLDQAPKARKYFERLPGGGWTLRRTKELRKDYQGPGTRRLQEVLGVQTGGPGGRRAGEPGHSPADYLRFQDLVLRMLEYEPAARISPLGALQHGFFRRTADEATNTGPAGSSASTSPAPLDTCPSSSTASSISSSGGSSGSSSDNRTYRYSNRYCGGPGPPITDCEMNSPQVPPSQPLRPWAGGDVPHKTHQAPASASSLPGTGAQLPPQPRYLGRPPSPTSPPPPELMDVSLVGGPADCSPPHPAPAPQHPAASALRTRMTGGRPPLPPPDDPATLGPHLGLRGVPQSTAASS
From the text: as §1, §2

Haspin = biological target: T5, Haspin (Homo sapiens, UniProt Q8TF76); parameters: purchased Carna Biosciences
T5 sequence (Q8TF76 1-798): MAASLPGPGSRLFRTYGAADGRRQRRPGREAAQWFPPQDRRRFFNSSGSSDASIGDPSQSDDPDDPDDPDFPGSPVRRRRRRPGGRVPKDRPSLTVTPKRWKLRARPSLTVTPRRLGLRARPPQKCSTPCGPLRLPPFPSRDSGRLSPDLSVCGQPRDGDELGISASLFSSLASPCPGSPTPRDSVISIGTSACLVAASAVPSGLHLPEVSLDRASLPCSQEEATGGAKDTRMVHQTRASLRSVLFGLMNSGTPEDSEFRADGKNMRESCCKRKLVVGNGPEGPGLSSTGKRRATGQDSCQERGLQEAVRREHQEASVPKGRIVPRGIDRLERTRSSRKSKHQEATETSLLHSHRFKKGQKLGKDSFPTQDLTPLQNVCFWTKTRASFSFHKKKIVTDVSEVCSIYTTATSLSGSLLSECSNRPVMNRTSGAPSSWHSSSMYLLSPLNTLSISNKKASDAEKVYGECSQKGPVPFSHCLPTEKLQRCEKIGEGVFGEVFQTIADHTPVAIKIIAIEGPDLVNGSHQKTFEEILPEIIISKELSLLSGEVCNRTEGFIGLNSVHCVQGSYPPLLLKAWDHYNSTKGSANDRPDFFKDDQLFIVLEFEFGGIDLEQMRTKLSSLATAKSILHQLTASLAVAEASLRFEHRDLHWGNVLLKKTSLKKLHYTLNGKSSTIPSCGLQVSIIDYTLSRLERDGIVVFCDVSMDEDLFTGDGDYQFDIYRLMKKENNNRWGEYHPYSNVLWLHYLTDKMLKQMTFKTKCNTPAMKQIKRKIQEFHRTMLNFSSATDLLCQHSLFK
From the text: as §1, §2

PKCβ1 = biological target: T6, PKCβ1 (Homo sapiens, UniProt P05771); details: CaNDY 1 µM relative to DMSO
T6 construct: purchased Carna Biosciences
T6 sequence (P05771 whole entry): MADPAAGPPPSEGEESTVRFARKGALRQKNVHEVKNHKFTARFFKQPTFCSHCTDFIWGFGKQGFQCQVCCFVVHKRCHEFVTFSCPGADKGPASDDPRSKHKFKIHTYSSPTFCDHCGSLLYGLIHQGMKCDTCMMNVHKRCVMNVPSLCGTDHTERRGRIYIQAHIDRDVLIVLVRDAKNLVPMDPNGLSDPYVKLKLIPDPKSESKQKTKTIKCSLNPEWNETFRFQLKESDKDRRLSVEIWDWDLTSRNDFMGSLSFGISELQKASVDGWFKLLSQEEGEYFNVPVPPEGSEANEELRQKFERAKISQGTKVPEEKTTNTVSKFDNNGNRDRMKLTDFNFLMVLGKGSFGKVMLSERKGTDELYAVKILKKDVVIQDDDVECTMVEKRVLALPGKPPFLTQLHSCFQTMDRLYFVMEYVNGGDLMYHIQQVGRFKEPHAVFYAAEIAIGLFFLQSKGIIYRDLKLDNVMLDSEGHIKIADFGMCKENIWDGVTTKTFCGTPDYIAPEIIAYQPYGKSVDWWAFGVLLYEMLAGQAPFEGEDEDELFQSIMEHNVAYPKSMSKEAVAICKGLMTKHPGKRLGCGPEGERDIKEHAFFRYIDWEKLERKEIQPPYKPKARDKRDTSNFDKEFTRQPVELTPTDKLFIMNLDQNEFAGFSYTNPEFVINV

PKCγ = biological target: T7, PKCγ (Homo sapiens, UniProt P05129); details: CaNDY 1 µM relative to DMSO
T7 construct: purchased Carna Biosciences

PAK5 = biological target: T8, PAK5 (Homo sapiens, UniProt Q9P286); details: CaNDY 1 µM relative to DMSO
T8 construct: purchased Carna Biosciences

IRAK1 = biological target: T9, IRAK1 (Homo sapiens, UniProt P51617); details: CaNDY 1 µM relative to DMSO
T9 construct: purchased Carna Biosciences

FGFR3(K650E) = biological target: T10, FGFR3(K650E) (Homo sapiens, UniProt P22607, K650E); details: CaNDY 1 µM relative to DMSO
T10 construct: purchased Carna Biosciences

FER = biological target: T11, FER (Homo sapiens, UniProt P16591); details: CaNDY 1 µM relative to DMSO
T11 construct: purchased Carna Biosciences

EEF2K = biological target: T12, EEF2K (Homo sapiens, UniProt O00418); details: CaNDY 1 µM relative to DMSO
T12 construct: purchased Carna Biosciences
From the text: as §1, §2

HER4 = biological target: T13, HER4 (Homo sapiens, UniProt Q15303); details: CaNDY 1 µM relative to DMSO
T13 construct: purchased Carna Biosciences
From the text: as §1, §2

TBK1 = biological target: T14, TBK1 (Homo sapiens, UniProt Q9UHD2); details: CaNDY 1 µM relative to DMSO
T14 construct: purchased Carna Biosciences
T14 sequence (Q9UHD2 whole entry): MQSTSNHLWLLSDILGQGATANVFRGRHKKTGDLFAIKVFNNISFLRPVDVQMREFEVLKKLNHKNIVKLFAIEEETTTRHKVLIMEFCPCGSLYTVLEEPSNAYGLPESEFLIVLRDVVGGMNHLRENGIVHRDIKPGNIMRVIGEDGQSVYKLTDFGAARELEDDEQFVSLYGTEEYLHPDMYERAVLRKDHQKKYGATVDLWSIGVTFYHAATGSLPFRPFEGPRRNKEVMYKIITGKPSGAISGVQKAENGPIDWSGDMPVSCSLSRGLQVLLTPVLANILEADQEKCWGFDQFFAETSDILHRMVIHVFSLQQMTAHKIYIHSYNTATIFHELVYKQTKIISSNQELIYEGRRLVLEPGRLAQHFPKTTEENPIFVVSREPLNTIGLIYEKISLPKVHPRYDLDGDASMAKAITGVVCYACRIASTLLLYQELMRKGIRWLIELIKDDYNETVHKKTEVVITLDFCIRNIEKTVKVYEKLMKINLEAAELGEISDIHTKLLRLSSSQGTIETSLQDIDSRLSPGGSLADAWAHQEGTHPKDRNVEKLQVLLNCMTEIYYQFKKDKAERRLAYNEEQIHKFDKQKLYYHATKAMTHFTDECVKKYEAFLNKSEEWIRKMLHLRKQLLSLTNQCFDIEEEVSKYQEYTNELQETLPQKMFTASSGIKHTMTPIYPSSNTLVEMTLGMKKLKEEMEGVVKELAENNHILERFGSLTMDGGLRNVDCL
From the text: as §1, §2

LATS2 = biological target: T15, LATS2 (Homo sapiens, UniProt Q9NRM7); details: CaNDY 1 µM relative to DMSO
T15 construct: purchased Carna Biosciences
From the text: as §1, §2

ACK = biological target: T16, ACK (Homo sapiens, UniProt Q07912); details: CaNDY 1 µM relative to DMSO
T16 construct: purchased Carna Biosciences
From the text: as §1, §2

TRKB = biological target: T17, TRKB (Homo sapiens, UniProt Q16620); details: CaNDY 1 µM relative to DMSO
T17 construct: purchased Carna Biosciences
T17 sequence (Q16620 32-822): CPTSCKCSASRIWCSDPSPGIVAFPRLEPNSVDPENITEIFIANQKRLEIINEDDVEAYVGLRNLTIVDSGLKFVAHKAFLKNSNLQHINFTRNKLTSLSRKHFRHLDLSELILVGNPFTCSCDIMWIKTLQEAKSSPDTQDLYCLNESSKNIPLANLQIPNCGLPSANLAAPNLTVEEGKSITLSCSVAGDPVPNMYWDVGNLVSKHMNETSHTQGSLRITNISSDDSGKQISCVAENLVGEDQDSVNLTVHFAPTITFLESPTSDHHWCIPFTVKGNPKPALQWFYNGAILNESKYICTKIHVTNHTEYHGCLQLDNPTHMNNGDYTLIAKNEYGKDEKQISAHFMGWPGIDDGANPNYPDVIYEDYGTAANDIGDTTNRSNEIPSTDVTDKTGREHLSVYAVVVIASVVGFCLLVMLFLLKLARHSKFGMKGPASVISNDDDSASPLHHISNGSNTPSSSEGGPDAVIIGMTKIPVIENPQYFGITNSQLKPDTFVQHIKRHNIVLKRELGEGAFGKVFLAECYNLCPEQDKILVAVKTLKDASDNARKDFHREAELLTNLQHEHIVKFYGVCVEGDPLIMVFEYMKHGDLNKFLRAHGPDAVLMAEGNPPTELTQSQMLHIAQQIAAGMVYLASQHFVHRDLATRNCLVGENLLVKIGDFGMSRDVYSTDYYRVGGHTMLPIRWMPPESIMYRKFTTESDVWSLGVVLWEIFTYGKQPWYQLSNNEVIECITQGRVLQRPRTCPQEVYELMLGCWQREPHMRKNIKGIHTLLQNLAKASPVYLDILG
From the text: as §1, §2

p70S6Kβ = biological target: T18, p70S6Kβ (Homo sapiens, UniProt Q9UBS0); details: CaNDY 1 µM relative to DMSO
T18 construct: purchased Carna Biosciences
From the text: as §1, §2

MAP2K5_Cascade = biological target: T19, MAP2K5_Cascade (Homo sapiens, UniProt Q13163); details: CaNDY 1 µM relative to DMSO
T19 construct: purchased Carna Biosciences
T19 sequence (Q13163 whole entry): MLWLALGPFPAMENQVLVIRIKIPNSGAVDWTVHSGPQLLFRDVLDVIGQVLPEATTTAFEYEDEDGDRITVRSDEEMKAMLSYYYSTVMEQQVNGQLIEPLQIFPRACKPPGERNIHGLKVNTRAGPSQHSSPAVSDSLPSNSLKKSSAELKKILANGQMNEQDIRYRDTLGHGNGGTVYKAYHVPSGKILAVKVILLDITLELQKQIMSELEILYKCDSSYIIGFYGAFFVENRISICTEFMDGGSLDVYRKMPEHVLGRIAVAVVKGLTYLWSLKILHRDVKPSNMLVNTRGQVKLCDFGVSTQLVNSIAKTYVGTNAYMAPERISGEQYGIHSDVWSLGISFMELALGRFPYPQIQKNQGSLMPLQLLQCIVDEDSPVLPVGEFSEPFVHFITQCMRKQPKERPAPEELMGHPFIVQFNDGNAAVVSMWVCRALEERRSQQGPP

CaMK2β = biological target: T20, CaMK2β (Homo sapiens, UniProt Q13554); details: CaNDY 1 µM relative to DMSO
T20 construct: purchased Carna Biosciences

ROS = biological target: T21, ROS (Homo sapiens, UniProt P08922); details: CaNDY 1 µM relative to DMSO
T21 construct: purchased Carna Biosciences

[1] = 1 μM CaNDY, read-out: percentage inhibition

T2 sequence (P07948 1-491 isoform P07948-2): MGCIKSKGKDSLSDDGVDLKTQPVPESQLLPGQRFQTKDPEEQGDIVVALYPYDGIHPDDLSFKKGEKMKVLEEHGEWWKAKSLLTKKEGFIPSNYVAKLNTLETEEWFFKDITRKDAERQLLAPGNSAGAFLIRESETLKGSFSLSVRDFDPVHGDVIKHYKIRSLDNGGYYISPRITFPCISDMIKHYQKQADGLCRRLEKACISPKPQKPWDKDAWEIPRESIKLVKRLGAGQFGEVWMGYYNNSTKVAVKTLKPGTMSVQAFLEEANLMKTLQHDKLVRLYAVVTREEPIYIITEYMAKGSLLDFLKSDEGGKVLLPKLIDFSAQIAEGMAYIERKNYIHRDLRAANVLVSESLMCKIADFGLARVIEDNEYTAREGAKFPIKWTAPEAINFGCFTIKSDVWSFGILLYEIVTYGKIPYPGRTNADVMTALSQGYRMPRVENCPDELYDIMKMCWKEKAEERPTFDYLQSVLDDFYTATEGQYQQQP

[H]/N=C1/NC(=O)C(=Cc2ccc3c(c2)CCO3)S1 [CaNDY, (Z)-5-[(2,3-dihydrobenzofuran-5-yl)methylene]-2-iminothiazolidin-4-one]
%Activity (EGFR(d746-750/T790M)): 101.0%
remaining activity at 1 µM (LYNb): 98%
remaining activity at 1 µM (p38γ): 91.4%
remaining activity at 1 µM (TAOK2): 95.7%
inhibition at 1 µM (DYRK1A; [1]): > 90%
remaining activity at 1 µM (DYRK1A; CaNDY 1 µM relative to DMSO): 0.9%
inhibition at 1 µM (DYRK1B; [1]): > 90%
remaining activity at 1 µM (DYRK1B; CaNDY 1 µM relative to DMSO): 3.7%
inhibition at 1 µM (Haspin; [1]): > 90%
remaining activity at 1 µM (Haspin; CaNDY 1 µM relative to DMSO): 3.8%
remaining activity at 1 µM (PKCβ1): 83.8%
remaining activity at 1 µM (PKCγ): 90.6%
remaining activity at 1 µM (PAK5): 97.5%
remaining activity at 1 µM (IRAK1): 87.4%
remaining activity at 1 µM (FGFR3(K650E)): 101%
remaining activity at 1 µM (FER): 98.6%
remaining activity at 1 µM (EEF2K): 97.2%
remaining activity at 1 µM (HER4): 111%
remaining activity at 1 µM (TBK1): 100%
%Activity (LATS2): 98.1%
remaining activity at 1 µM (ACK): 108%
remaining activity at 1 µM (TRKB): 101%
remaining activity at 1 µM (p70S6Kβ): 88.9%
remaining activity at 1 µM (MAP2K5_Cascade): 101%
remaining activity at 1 µM (CaMK2β): 98.2%
remaining activity at 1 µM (ROS): 103%

Reference: publication PMC4522657, “Identification of a DYRK1A Inhibitor that Induces Degradation of the Target Kinase using Co-chaperone CDC37 fused with Luciferase nanoKAZ” (Scientific Reports, 2015)
